In brackets after ≈: the same amount, converted by molar mass. Numbered stars: 1 amine (or outer) side, 2 acyl side, 3 side chain; on linkers, the order of the positions; unused ones are H or OH. Square brackets hold non-standard residues; d marks the D form. Primed or numbered codes have the meaning given here. Side chains are listed from the residue outwards. Ends that are not written are not given here. Peptide text beside a SMILES is read from it. * marks the point of attachment. Orn(α-tetramethylguanidino) = CN(C)C(=N[C@@H](CCCN)C(=O)*)N(C)C; δOrn(α-TMG) = CN(C)C(=N[C@@H](CCCN[*:1])C(=O)[*:2])N(C)C; Guan″ = guanidino group at the N-terminus, N=C(N)*; sPEG750 = PEG of 750 linked via acid group; Orn = NCCC[C@H](N)C(=O)O
How the values were obtained:
[1] = system: Escherichia coli strain BL21AI; experiment: Minimum inhibitory concentration in 1% TSB; assay type: cell-based; settings: E. coli BL21AI, 1% TSB, 20 hours at 37° C.
Method: (§1) To that end, the peptides were dissolved in water and diluted in a two-fold dilution series with 1% aqueous soybean medium (TSB) in sterile 96-well plates (Greiner Bio-One GmbH) from 128 μg/ml in twelve dilution steps to 62.5 ng/ml. Overnight cultures of Escherichia coli strain BL21AI were adjusted with 1% TSB to about […] colony forming units per ml. In each case 50 μl of peptide solution per well were then mixed with in each case 50 μl of the bacteria solution, in order to achieve a starting concentration of 4×10^5 bacteria per well. After incubation for 20 hours at 37° C., the absorption at 595 nm was determined (microplate reader, TECAN Trading AG).

[2] = Serum stability / release of peptide in 25% aqueous mouse serum (RP-HPLC, MALDI-MS); settings: 25% (v/v) aqueous mouse serum
Method: (§2) 30 μl of a 1 mg/ml peptide solution were diluted with 120 μl of water and, after addition of 50 of serum, incubated at 37° C. for 0 hours, 0.5 hour, 1 hour, 2 hours or 4 hours. Alternatively, the peptide derivatives having a starting concentration of 3 mg/ml were diluted with serum to a final concentration of 15 μg/ml. According to the stability of the peptides, the samples were analysed at the times mentioned above or after 0 hours, 4 hours and 6 hours. The serum proteins were precipitated by addition of 50 μl of 15% TCA, and the supernatant was neutralised with 25 μl of 1 mol/l NaOH. The samples were made up to 250 μl with 5% B, 230 μl of the solution were transferred into a HPLC vial, and 220 μl were injected.
(§3) RP-HPLC analysis was carried out with a linear acetonitrile gradient (Biosolve BV, Valkenswaard, Netherlands) in the presence of 0.1% trifluoroacetic acid (TFA, UV grade, Fluka Chemie GmbH, Buchs, Switzerland) as ion-pair reagent. The fractions were co-crystallised with α-cyanohydroxycinnamic acid (Bruker Daltonik GmbH; Bremen, Germany) as matrix (4 mg/ml in 60% acetonitrile in 0.1% aqueous TFA) and analysed with a tandem mass spectrometer (MALDI-TOF/TOF-MS, 4700 Proteomics Analyzer; Applied Biosystems GmbH, Weiterstadt, Germany) in positive-ion reflector mode. The amount of intact peptides and their degradation products or metabolites could thus be identified and quantified at the individual times. 25% aqueous mouse serum, which was analysed in parallel for the same time intervals, was used as control.

[3] = mammalian serum (25%); cited from earlier work
[4] = mouse
Method: as §2, §3

[5] = system: Escherichia coli strain BL21AI; experiment: Minimum inhibitory concentration in TSB in the presence of 25% mouse serum; assay type: cell-based; settings: E. coli BL21AI, TSB with 25% mouse serum, 20 hours at 37° C.
Method: as §1
In addition, the antibacterial activity was also determined in the presence of 25% mouse serum. To that end, the MIC values were determined as described above, but 25 μl of mouse serum were also added to each well before the incubation (25% final concentration).

25% aqueous mouse serum = settings: 37° C., up to 6 hours

Molecule	MIC in TSB [1] [µM]	half-life at 150 µg/ml [2] [h]	also measured
CC[C@H](C)[C@H](NC(=O)[C@H](Cc1ccc(O)cc1)NC(=O)[C@@H](NC(=O)[C@@H]1CCCN1C(=O)[C@H](CCCNC(=N)N)NC(=O)[C@H](CC(N)=O)NC(=O)[C@H](CC(N)=O)NC(=O)[C@H](CCCNC(=O)CNC(=O)[C@H](CO)NC(=O)[C@H](CCCNC(=N)N)NC(=O)[C@H](C)NC(=O)CN)N=C(N(C)C)N(C)C)C(C)C)C(=O)N1CCC[C@H]1C(=O)N[C@@H](CCCNC(=N)N)C(=O)N1CCC[C@H]1C(=O)N[C@@H](CCCNC(=N)N)C(=O)N1CCC[C@H]1C(=O)N1CCC[C@H]1C(=O)N[C@@H](Cc1c[nH]cn1)C(=O)N1CCC[C@H]1C(=O)N[C@@H](CCCNC(=N)N)C(=O)N[C@@H](CC(C)C)C(=O)O [Api 137 (GARSG)] (H-GARSG[δOrn(α-TMG)]NNRPVYIPRPRPPHPRL-OH)	0.9 (≈ 2.45 µg/mL)	0.5	–
GKPRPYSPRPTSHPRPIRV [drosocin]	–	–	Time to degradation in mammalian serum [3]: degraded within an hour
CC[C@H](C)[C@H](NC(=O)[C@H](Cc1ccc(O)cc1)NC(=O)[C@@H](NC(=O)[C@@H]1CCCN1C(=O)[C@H](CCCNC(=N)N)NC(=O)[C@H](CC(N)=O)NC(=O)[C@H](CC(N)=O)NC(=O)[C@H](CCCNC(=O)CNC(=O)[C@H](CO)NC(=O)[C@H](CCCNC(=N)N)NC(=O)CN)N=C(N(C)C)N(C)C)C(C)C)C(=O)N1CCC[C@H]1C(=O)N[C@@H](CCCNC(=N)N)C(=O)N1CCC[C@H]1C(=O)N[C@@H](CCCNC(=N)N)C(=O)N1CCC[C@H]1C(=O)N1CCC[C@H]1C(=O)N[C@@H](Cc1c[nH]cn1)C(=O)N1CCC[C@H]1C(=O)N[C@@H](CCCNC(=N)N)C(=O)N[C@@H](CC(C)C)C(=O)O [Api 137 (GRSG)] (H-GRSG[δOrn(α-TMG)]NNRPVYIPRPRPPHPRL-OH)	0.7 (≈ 1.85 µg/mL)	1	–
Guan-O(sPEG^750-GRSG)NNRPVYIPRPRPPHPRL-OH ({Guan″}-[Orn]([Gly-Ser-Arg-Gly-sPEG750])NNRPVYIPRPRPPHPRL-OH) [Api 137 (sPEG^750-GRSG)]	–	–	Half-life (t1/2) in 25% serum [4]: 2 h
Guan-O(sPEG^750-GARSG)NNRPVYIPRPRPPHPRL-OH ({Guan″}-[Orn]NNRPVYIPRPRPPHPRL-OH; not fully specified (residue 1)) [Api 137 (sPEG^750-GARSG)]	1.1	–	Half-life (t1/2) in 25% serum [4]: 1 h
CC[C@H](C)[C@H](NC(=O)[C@H](Cc1ccc(O)cc1)NC(=O)[C@@H](NC(=O)[C@@H]1CCCN1C(=O)[C@H](CCCNC(=N)N)NC(=O)[C@H](CC(N)=O)NC(=O)[C@H](CC(N)=O)NC(=O)[C@H](CCCN)N=C(N(C)C)N(C)C)C(C)C)C(=O)N1CCC[C@H]1C(=O)N[C@@H](CCCNC(=N)N)C(=O)N1CCC[C@H]1C(=O)N[C@@H](CCCNC(=N)N)C(=O)N1CCC[C@H]1C(=O)N1CCC[C@H]1C(=O)N[C@@H](Cc1c[nH]cn1)C(=O)N1CCC[C@H]1C(=O)N[C@@H](CCCNC(=N)N)C(=O)N[C@@H](CC(C)C)C(=O)O [Api 137, Guan-ONNRPVYIPRPRPPHPRL-OH, reference compound] ({Orn(α-tetramethylguanidino)}-NNRPVYIPRPRPPHPRL-OH)	0.46 (≈ 1.05 µg/mL)	> 6	MIC in TSB/mouse serum [5]: 0.23 µM
Guan-O(GARSG)NNRPVYIPRPRPPHPRL-OH (H-GARSG[δOrn(α-TMG)]NNRPVYIPRPRPPHPRL-OH; SMILES CC[C@H](C)[C@H](NC(=O)[C@H](Cc1ccc(O)cc1)NC(=O)[C@@H](NC(=O)[C@@H]1CCCN1C(=O)[C@H](CCCNC(=N)N)NC(=O)[C@H](CC(N)=O)NC(=O)[C@H](CC(N)=O)NC(=O)[C@H](CCCNC(=O)CNC(=O)[C@H](CO)NC(=O)[C@H](CCCNC(=N)N)NC(=O)[C@H](C)NC(=O)CN)N=C(N(C)C)N(C)C)C(C)C)C(=O)N1CCC[C@H]1C(=O)N[C@@H](CCCNC(=N)N)C(=O)N1CCC[C@H]1C(=O)N[C@@H](CCCNC(=N)N)C(=O)N1CCC[C@H]1C(=O)N1CCC[C@H]1C(=O)N[C@@H](Cc1c[nH]cn1)C(=O)N1CCC[C@H]1C(=O)N[C@@H](CCCNC(=N)N)C(=O)N[C@@H](CC(C)C)C(=O)O)	–	–	cleaved bond (25% aqueous mouse serum): R-S
Guan-O(sPEG^750-GARSG)NNRPVYIPRPRPPHPRL-OH	–	–	cleaved bond (25% aqueous mouse serum): R-S
